15 molecules from ChEMBL document CHEMBL1130914, “Thromboxane modulating agents. 4. Design and synthesis of 3-(2-[[(4-chlorophenyl)sulfonyl]-amino]ethyl)benzenepropanoic acid derivatives as potent thromboxane receptor antagonists” (Bioorg Med Chem Lett, 1998) can be followed below.

The target of the first test is T1, Thromboxane A2 receptor (Rattus norvegicus, UniProt P34978).
T1 sequence (P34978 whole entry): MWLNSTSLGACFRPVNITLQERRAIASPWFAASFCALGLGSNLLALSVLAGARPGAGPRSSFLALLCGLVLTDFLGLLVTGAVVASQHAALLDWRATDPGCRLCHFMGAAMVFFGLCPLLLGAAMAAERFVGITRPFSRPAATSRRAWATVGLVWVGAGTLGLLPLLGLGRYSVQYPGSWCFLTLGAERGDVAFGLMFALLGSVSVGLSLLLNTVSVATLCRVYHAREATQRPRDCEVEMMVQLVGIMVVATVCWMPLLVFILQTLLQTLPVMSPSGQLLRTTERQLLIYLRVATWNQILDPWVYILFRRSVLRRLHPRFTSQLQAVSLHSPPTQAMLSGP
Kind of test: In vitro Thromboxane A2 (TXA2) receptor antagonism was tested by its ability to inhibit the contraction of rat aorta induced by the stable thromboxane agonist U-46,619. It counts as functional, tissue-based. To be noted: read-out: pA2 (converted).
As for `O=C(O)CCc1cc(CCNS(=O)(=O)c2ccc(Cl)cc2)cc(Cc2ccc(F)cc2)c1`, the Kb is 0.0251 nM.
The same measure, in the same setting: with `CC(c1ccc(F)cc1)c1cc(CCNS(=O)(=O)c2ccc(Cl)cc2)cc(CCC(=O)O)c1` (stereo not drawn) the figure was 0.00398 nM; with `O=C(O)CCc1cc(CCNS(=O)(=O)c2ccc(Cl)cc2)cc(Cc2ccncc2)c1`, 0.00251 nM; with `O=C(O)CCc1cccc(CCNS(=O)(=O)c2ccc(Cl)cc2)c1`, 2 nM.
In the case of `COc1ccc(Cc2cc(CCNS(=O)(=O)c3ccc(Cl)cc3)cc(CCC(=O)O)c2)cc1`, the Kb was 0.00398 nM.
Same read-out and setting: for `O=C(O)CCc1cc(CCNS(=O)(=O)c2ccc(Cl)cc2)cc(Cc2ccccc2)c1` the value was 0.0158 nM; for `COc1ccccc1Cc1cc(CCNS(=O)(=O)c2ccc(Cl)cc2)cc(CCC(=O)O)c1`, 0.0631 nM.
For the molecule `CS(=O)(=O)c1ccc(C(=O)c2cc(CCNS(=O)(=O)c3ccc(Cl)cc3)cc(CCC(=O)O)c2)cc1`, the Kb is 0.316 nM.
For the molecule `CS(=O)(=O)c1ccc(Cc2cc(CCNS(=O)(=O)c3ccc(Cl)cc3)cc(CCC(=O)O)c2)cc1`, the Kb was 0.0631 nM.
On the same count and under the same terms, for `COc1ccc(C(=O)c2cc(CCNS(=O)(=O)c3ccc(Cl)cc3)cc(CCC(=O)O)c2)cc1` the value was 0.0251 nM; for `O=C(O)CCc1cc(CCNS(=O)(=O)c2ccc(Cl)cc2)cc(Cc2cccc(F)c2)c1`, 0.0794 nM.
Regarding `O=C(O)CCc1cc(CCNS(=O)(=O)c2ccc(Cl)cc2)cc(C(=O)c2ccc(F)cc2)c1`, the Kb was 0.1 nM.
The same measure, in the same setting: for `N#Cc1ccc(C(=O)c2cc(CCNS(=O)(=O)c3ccc(Cl)cc3)cc(CCC(=O)O)c2)cc1` the value was 0.0398 nM.
For `O=C(O)CCc1cc(CCNS(=O)(=O)c2ccc(Cl)cc2)cc(Cc2cccnc2)c1`, the Kb is 0.398 nM.
Same read-out and setting: for `O=C(O)CCc1cc(CCNS(=O)(=O)c2ccc(Cl)cc2)cc(C(O)c2ccc(F)cc2)c1` (stereo not drawn) the value was 0.2 nM.

A further test relates to Thromboxane A2 receptor (Canis lupus familiaris). Kind of test: Tested for the peroral dose required to maintain complete thromboxane receptor antagonism for > 12 hours.
Settings: not given
The molecule `O=C(O)CCc1cc(CCNS(=O)(=O)c2ccc(Cl)cc2)cc(Cc2ccc(F)cc2)c1` showed an Activity of 0.1 mg/kg.

The next test shares this test system. Kind of test: Tested for peroral dose required to cause complete blockade of the response to the thromboxane receptor agonist U-46,619 (1 uM) for 48 hours.
Settings: not given
`O=C(O)CCc1cc(CCNS(=O)(=O)c2ccc(Cl)cc2)cc(Cc2ccc(F)cc2)c1` registered an Activity of 1 mg/kg.

The next test deals with T2, Thromboxane-A synthase (Homo sapiens, UniProt P24557).
T2 sequence (P24557 whole entry): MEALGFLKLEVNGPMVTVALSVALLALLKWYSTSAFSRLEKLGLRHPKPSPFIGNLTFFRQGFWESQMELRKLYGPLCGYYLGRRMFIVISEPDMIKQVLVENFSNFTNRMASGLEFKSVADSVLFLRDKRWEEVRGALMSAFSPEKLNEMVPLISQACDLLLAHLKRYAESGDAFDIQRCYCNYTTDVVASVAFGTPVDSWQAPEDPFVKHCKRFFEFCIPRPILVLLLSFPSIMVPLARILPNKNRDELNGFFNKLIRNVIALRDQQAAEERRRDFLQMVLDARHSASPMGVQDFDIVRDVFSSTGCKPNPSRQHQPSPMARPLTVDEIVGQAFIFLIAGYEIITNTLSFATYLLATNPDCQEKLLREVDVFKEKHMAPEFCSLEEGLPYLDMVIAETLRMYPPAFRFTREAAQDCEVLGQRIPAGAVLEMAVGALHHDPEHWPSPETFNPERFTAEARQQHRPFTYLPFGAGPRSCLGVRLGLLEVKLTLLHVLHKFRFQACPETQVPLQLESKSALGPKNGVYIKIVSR
Kind of test: Inhibitory activity against Thromboxane A2 synthase from human platelet microsomes.
Settings: not given
In the case of `O=C(O)CCc1cc(CCNS(=O)(=O)c2ccc(Cl)cc2)cc(Cc2ccncc2)c1`, the IC50 came out at 47 nM. That is a double-digit nanomolar value.
